These results are taken from patent publication EP4800018A1, “PAN-KRAS INHIBITOR AND USE THEREOF IN MEDICINES” (Betta Pharmaceuticals Co., Ltd., priority 2023, dated 2025).

Holding throughout (format): cell-based
Assay [1] concerns KRAS-G12V mutant tumor cells SW620. Put plainly: Cell Proliferation Inhibition Assay (SW620), Cell-titer GLO, 96 h. The conditions noted are these: Homo sapiens, SW-620, 96 h, read-out: SW620(G12V). On the procedure: (§1) KRAS-G12V mutant tumor cells SW620 were seeded in low-attachment 96-well plates at a cell density of 1×10^3 cells/well and cultured overnight in a cell culture incubator. After the cells adhered, the test compounds were added to the 96-well plates at final concentrations of 10000, 2000, 400, 80, 16, 3.2, 0.64, 0.13, 0.03, 0 nM (final concentration of DMSO was 0.5% for all). After incubation at 37°C for 96 h, 50 µL of Cell-titer GLO working solution was added to each well, mixed by shaking, incubated at room temperature for 10 min, and the Luminescence value was read on a multi-function microplate reader. The luminescence data were calculated and converted into inhibition percent. The inhibition percent of cell proliferation was calculated according to the following formula: Inhibition Percent = (MaxValue−MeasuredValue)/(MaxValue−Blank) × 100% [formula]
("Max Value" comes from the 0.5% DMSO control well, "Blank" comes from the blank control well, and "Measured Value" comes from the compound-treated well).
Curve fitting was performed using GraphPad Prism software to obtain IC50 values, see Table 1.

A further assay has as its target T1, KRAS G12D-cRAF (Homo sapiens, UniProt P01116, G12D).
T1 construct: expressed in transfected cells
Put plainly: Cellular KRAS G12D-cRAF Binding Inhibition Assay (NanoBRET, AD293 stable cells). The conditions noted are these: 3 h incubation. On the procedure: (§2) NanoLuc® luciferase was used as the energy donor, and NanoBRET™ 618 fluorescent ligand labeled with the HaloTag® protein was used as the energy acceptor to detect protein-protein interactions in living cells. AD293 stable cells transfected with KRAS G12D-NanoLuc® luciferase and cRAF RBD-HaloTag® tag protein were seeded in 96-well plates at a cell density of 1×10^4 cells/well. Except for wells with medium added as a blank control, NanoBRET™ 618 fluorescent ligand was added to all other wells, and the plates were cultured overnight in a cell culture incubator. […] The luminescence data were calculated and converted into inhibition percent. The inhibition percent of KRAS G12D-cRAF binding was calculated according to the following formula: Inhibition Percent = (MaxValue−MeasuredValue)/(MaxValue−Blank) × 100% [formula] […] Curve fitting was performed using GraphPad Prism software to obtain IC50 values, see Table 1.

The test system of assay [2] is KRAS-G12D mutant tumor cells AGS. Nature of the assay: Cell Proliferation Inhibition Assay (AGS), Cell-titer GLO, 96 h. The conditions noted are these: Homo sapiens, AGS, 96 h, read-out: AGS(G12D). The protocol: as §1, with “KRAS-G12D” for “KRAS-G12V”, “AGS” for “SW620”, “After the cells adhered, the test compounds were added to the 96-well plates at final concentrations of 10000, 2000, 400, 80, 16, 3.2, 0.64, 0.13, 0.03, 0 nM (final concentration of DMSO was 0.5% for all).” left out, “[formula] […] Curve fitting was performed using GraphPad Prism software to obtain IC50 values, see Table 1.” for “[formula]”

The target in a further assay is T2, KRAS G12V-cRAF (Homo sapiens, UniProt P01116, G12V).
T2 construct: expressed in transfected cells
Put plainly: Cellular KRAS G12V-cRAF Binding Inhibition Assay (NanoBRET, AD293 stable cells). The conditions noted are these: 3 h incubation. The protocol:
as §2, with “AD293 stable cells transfected with KRAS G12D-NanoLuc® luciferase and cRAF RBD-HaloTag® tag protein were seeded in 96-well plates at a cell density of 1×10^4 cells/well.” left out, “G12V-cRAF” for “G12D-cRAF”
In general terms: BRET reads energy transfer from a luciferase to a nearby fluorophore.

The mark [3] stands for this setting: SW620 cells, 96 h incubation, Cell-titer GLO.
Setting [4] is: AGS cells, 96 h incubation, Cell-titer GLO.

SMILES strings stand for the structures. Where two headings read alike, the source gives them in different places.

T1 sequence (P01116 1-188 isoform P01116-2 G12D): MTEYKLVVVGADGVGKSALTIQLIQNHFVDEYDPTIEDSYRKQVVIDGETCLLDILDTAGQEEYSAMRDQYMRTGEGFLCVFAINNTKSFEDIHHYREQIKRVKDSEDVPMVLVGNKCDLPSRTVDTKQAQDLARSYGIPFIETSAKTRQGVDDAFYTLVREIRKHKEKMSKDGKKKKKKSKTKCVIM
T2 sequence (P01116 1-188 isoform P01116-2 G12V): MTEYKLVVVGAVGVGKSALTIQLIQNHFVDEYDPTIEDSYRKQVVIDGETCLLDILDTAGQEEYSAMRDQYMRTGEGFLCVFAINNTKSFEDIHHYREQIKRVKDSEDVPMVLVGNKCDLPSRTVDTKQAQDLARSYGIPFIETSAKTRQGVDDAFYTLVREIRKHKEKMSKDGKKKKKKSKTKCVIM

Consider `C[C@H]1C[C@@H]1C(=O)N[C@H]1Cc2nc(cs2)-c2ccc3c(c2)c(c2n3CCCOCc3ncc(N4CCN(C)CC4)cc3-2)CC(C)(C)COC(=O)[C@@H]2CCCN(N2)C1=O` [Example 2, (1S,2S)-N-((6^3S,4S,Z)-10,10-dimethyl-1^2-(4-methylpiperazin-1-yl)-5,7-dioxo-1^8,1^9,6^1,6^2,6^3,6^4,6^5 ,6^6-octahydro-1^5H,1^7H-8-oxa-1(13,15)-pyrido[3',2':7,8][1,5]oxazonino[5,6-a]indola-2(4,2)-thiazola-6(1,3)-pyridazinacycloundecaphane-4-yl)-2-methylcyclopropane-1-carboxamide], for which the IC50 in assay [1] amounted to 1.56 nM; at KRAS G12D-cRAF (NanoBRET KRAS G12D) it was 29.1 nM; in assay [2], 8.7 nM; on KRAS G12V-cRAF (NanoBRET KRAS G12V) it was 206 nM.
Take `C[C@H]1C[C@@H]1C(=O)N[C@H]1Cc2nc(cs2)-c2ccc3c(c2)c(c2n3[C@@H](C)CCOCc3ncc(N4CCN(C)CC4)cc3-2)CC(C)(C)COC(=O)[C@@H]2CCCN(N2)C1=O` [Example 4, (1S,2S)-2-methyl-N-((1^9S,6^3S,4S,Z)-1^9,10,10-trimethyl-1^2-(4-methylpiperazin-1-yl)-5,7-dioxo-1 ^8,1^9,6^1,6^2,6^3,6^4,6^5,6^6-octahydro-1^5H,1^7H-8-oxa-1(13,15)-pyrido[3',2':7,8][1,5]oxazonino[5,6-a]indola-2(4,2)-thiazola-6(1,3)-pyridazinacycloundecaphane-4-yl)cyclopropane-1-carboxamide]: the IC50 in assay [1] was 6.2 nM; at KRAS G12D-cRAF (NanoBRET KRAS G12D) it was 155 nM; in assay [2], 51.9 nM; on KRAS G12V-cRAF (NanoBRET KRAS G12V), 651 nM.
Take `C[C@@H]1OCC[C@H](C)n2c(c3c4cc(ccc42)-c2csc(n2)C[C@H](NC(=O)[C@H]2C[C@@H]2C)C(=O)N2CCC[C@H](N2)C(=O)OCC(C)(C)C3)-c2cc(N3CCN(C)CC3)cnc21` [Example 5, (1S,2S)-2-methyl-N-((1^5S,1^9S,6^3S,4S,Z)-1^5,1^9,10,10-tetramethyl-1^2-(4-methylpiperazin-1-yl)-5,7-dioxo-1^8,1^9,6^1,6^2,6^3,6^4,6^5,6^6-octahydro-1^5H,1^7H-8-oxa-1(13,15)-pyrido[3',2':7,8][1,5]oxazonino[5,6-a]indola-2(4,2)-thiazola-6(1,3)-pyridazinacycloundecaphane-4-yl)cyclopropane-1-carboxamide]: the IC50 worked out at 1.08 nM in assay [1], 25.9 nM at KRAS G12D-cRAF (NanoBRET KRAS G12D), 6.92 nM in assay [2] and 78.8 nM on KRAS G12V-cRAF (NanoBRET KRAS G12V).
Take `CCN1CCN(c2cnc3c(c2)-c2c4c5cc(ccc5n2CCCOC3C)-c2csc(n2)CC(NC(=O)C2CC2C)C(=O)N2CCCC(N2)C(=O)OCC(C)(C)C4)CC1` [Example 21, (1S,2S)-N-((1^5S,6^3S,4S,Z)-12-(4-ethylpiperazin-1-yl)-1^5,10,10-trimethyl-5,7-dioxo-1^8,1^9,6^1,6^2,6^3 ,6^4,6^5,6^6-octahydro-1^5H,1^7H-8-oxa-1(13,15)-pyrido[3',2':7,8][1,5]oxazonino[5,6-a]indola-2(4,2)-thiazola-6(1,3)-pyridazinacycloundecaphane-4-yl)-2-methylcyclopropane-1-carboxamide]: the IC50 in assay [1] (setting [3]) was found to be 1.46 nM; on KRAS G12D-cRAF (read-out: NanoBRET KRAS G12D) it was 3.95 nM; in assay [2] (setting [4]), 2.19 nM; on KRAS G12V-cRAF (read-out: NanoBRET KRAS G12V), 15.1 nM.
In the case of `COCCN1CCN(c2cnc3c(c2)-c2c4c5cc(ccc5n2CCCOC3C)-c2csc(n2)CC(NC(=O)C2CC2C)C(=O)N2CCCC(N2)C(=O)OCC(C)(C)C4)CC1` [Example 22, (1S,2S)-N-((1^5S,6^3S,4S,Z)-1^2-(4-(2-methoxyethyl)piperazin-1-yl)-1^5,10,10-trimethyl-5,7-dioxo-1 ^8,1^9,6^1,6^2,6^3,6^4,6^5,6^6-octahydro-1^5H,1^7H-8-oxa-1(13,15)-pyrido[3',2':7,8][1,5]oxazonino[5,6-a]indola-2(4,2)-thiazola-6(1,3)-pyridazinacycloundecaphane-4-yl)-2-methylcyclopropane-1-carboxamide], the IC50 amounted to 1.03 nM in assay [1] (setting [3]), 6.6 nM on KRAS G12D-cRAF (read-out: NanoBRET KRAS G12D), 2.62 nM in assay [2] (setting [4]) and 22.9 nM at KRAS G12V-cRAF (read-out: NanoBRET KRAS G12V).
On the same counts, the results for `CCN1CCN(c2cnc3c(c2)-c2c4c5cc(ccc5n2CCCOC3C)-c2csc(n2)CC(NC(=O)C23CC(C)(C2)C3)C(=O)N2CCCC(N2)C(=O)OCC(C)(C)C4)CC1` [Example 37, N-((1^5S,6^3S,4S,Z)-1^2-(4-ethylpiperazin-1-yl)-1^5,10,10-trimethyl-5,7-dioxo-1^8,1^9,6^1,6^2,6^3,6^4,6^56^6-octahydro-1^5H,1^7H-8-oxa-1(13,15)-pyrido[3',2':7,8][1,5]oxazonino[5,6-a]indola-2(4,2)-thiazola-6(1,3)-pyridazinacycloundecaphane-4-yl)-3-methylbicyclo[1.1.1]pentane-1-carboxamide] are 1.02 nM, 5.32 nM, 4.28 nM and 22.4 nM.
As for `COCCN1CCN(c2cnc3c(c2)-c2c4c5cc(ccc5n2CCCOC3C)-c2csc(n2)CC(NC(=O)C23CC(C)(C2)C3)C(=O)N2CCCC(N2)C(=O)OCC(C)(C)C4)CC1` [Example 38, N-((1^5S,6^3S,4S,Z)-1^2-(4-(2-methoxyethyl)piperazin-1-yl)-1^5,10,10-trimethyl-5,7-dioxo-1^8,1^9,6^1,6 ^2,6^3,6^4,6^5,6^6-octahydro-1^5H,1^7H-8-oxa-1(13,15)-pyrido[3',2':7,8][1,5]oxazonino[5,6-a]indola-2(4 ,2)-thiazola-6(1,3)-pyridazinacycloundecaphane-4-yl)-3-methylbicyclo[1.1.1]pentane-1-carboxamide], the IC50 in assay [1] (setting [3]) came to 1.72 nM; at KRAS G12D-cRAF (read-out: NanoBRET KRAS G12D), 8.6 nM; in assay [2] (setting [4]) it was 4.2 nM; on KRAS G12V-cRAF (read-out: NanoBRET KRAS G12V), 31.9 nM.
In the same order, the values of `CC1OCCCn2c(c3c4cc(ccc42)-c2csc(n2)CC(NC(=O)C24CC(C)(C2)C4)C(=O)N2CCCC(N2)C(=O)OCC(C)(C)C3)-c2cc(N3CCN(CC(F)(F)F)CC3)cnc21` [Example 39, 3-methyl-N-((1^5S,6^3S,4S,Z)-1^5,10,10-trimethyl-5,7-dioxo-1^2-(4-(2,2,2-trifluoroethyl)piperazin-1-yl)-1^8,1^9,6^1,6^2,6^3,6^4,6^5,6^6-octahydro-1^5H,1^7H-8-oxa-1(13,15)-pyrido[3',2':7,8][1,5]oxazonino[5,6-a]indola-2(4,2)-thiazola-6(1,3)-pyridazinacycloundecaphane-4-yl)bicyclo[1.1.1]pentane-1-carbo xamide] are 8.17 nM, 22.1 nM, 33.7 nM and 86.4 nM.
Take `CC1OCCCn2c(c3c4cc(ccc42)-c2csc(n2)CC(NC(=O)C24CC(C)(C2)C4)C(=O)N2CCCC(N2)C(=O)OCC(C)(C)C3)-c2cc(N3CCN(C4CC4)CC3)cnc21` [Example 40, N-((1^5S,6^3S,4S,Z)-1^2-(4-cyclopropylpiperazin-1-yl)-1^5,10,10-trimethyl-5,7-dioxo-1^8,1^9,6^1,6^2,6^3,6 ^4,6^5,6^6-octahydro-1^5H,1^7H-8-oxa-1(13,15)-pyrido[3',2':7,8][1,5]oxazonino[5,6-a]indola-2(4,2)-thiazola-6(1,3)-pyridazinacycloundecaphane-4-yl)-3-methylbicyclo[1.1.1]pentane-1-carboxamide]: the IC50 stood at 4.29 nM in assay [1] (setting [3]), 15.8 nM on KRAS G12D-cRAF (read-out: NanoBRET KRAS G12D), 22.4 nM in assay [2] (setting [4]) and 61.1 nM at KRAS G12V-cRAF (read-out: NanoBRET KRAS G12V).
